The values that follow come from patent US11723888B2, “Polymer conjugated thyrointegrin antagonists” (NanoPharmaceuticals, LLC, priority 2021, dated 2023).

The target of the test is purified αvβ3 (Homo sapiens, UniProt P05106+P06756). As to the kind of experiment: Binding affinity to purified αvβ3 (fibrinogen-coated plate, IC50). Conditions: purified αvβ3, fibrinogen-coated plates, 2 hours room temperature. Here is the method: The binding affinity of exemplary compounds is show in FIG. 11A, including P-bi-TET and m-P-mono-TET (both having n=36). The method was as follows: The binding affinity of P-bi-TET and m-P-mono-TET to purified αvβ3 was measured using the method described by Li, W., et al., Pharmacokinetics, Biodistribution, and Anti-Angiogenesis Efficacy of Diamino Propane Tetraiodothyroacetic Acid-conjugated Biodegradable Polymeric Nanoparticle. Sci Rep, 2019. 9(1): p. 9006. Ninety-six polystyrene microtiter plates coated with fibrinogen and incubated at 4° C. overnight. The wells were blocked with 3% BSA for 2 hours at room temperature and were washed with buffer A (50 mM Tris/HCl, 100 mM NaCl, 1 mM CaCl2), 1 mM MgCl2, 1% BSA) for three times. Integrins αvβ3 and increasing concentrations of P-bi-TET or m-P-mono-TET were added and incubated for 2 hours at room temperature, and then wells were washed three times with buffer A and incubated with a streptavidin HRP conjugate (1:1000 in buffer A) for 1 hour at room temperature. Finally, wells were washed three times with buffer A and 100 μL peroxidase substrate TMB was added, and the reaction was terminated after 30 minutes with 50 μL of 450 nm stop solution for TMB. Absorbance was determined at 450 nm with a Microplate Reader (Bio-Rad, Hercules, Calif., USA). […]

Structures are written as SMILES.

Chain of purified αvβ3 (P06756 31-889 limits assumed): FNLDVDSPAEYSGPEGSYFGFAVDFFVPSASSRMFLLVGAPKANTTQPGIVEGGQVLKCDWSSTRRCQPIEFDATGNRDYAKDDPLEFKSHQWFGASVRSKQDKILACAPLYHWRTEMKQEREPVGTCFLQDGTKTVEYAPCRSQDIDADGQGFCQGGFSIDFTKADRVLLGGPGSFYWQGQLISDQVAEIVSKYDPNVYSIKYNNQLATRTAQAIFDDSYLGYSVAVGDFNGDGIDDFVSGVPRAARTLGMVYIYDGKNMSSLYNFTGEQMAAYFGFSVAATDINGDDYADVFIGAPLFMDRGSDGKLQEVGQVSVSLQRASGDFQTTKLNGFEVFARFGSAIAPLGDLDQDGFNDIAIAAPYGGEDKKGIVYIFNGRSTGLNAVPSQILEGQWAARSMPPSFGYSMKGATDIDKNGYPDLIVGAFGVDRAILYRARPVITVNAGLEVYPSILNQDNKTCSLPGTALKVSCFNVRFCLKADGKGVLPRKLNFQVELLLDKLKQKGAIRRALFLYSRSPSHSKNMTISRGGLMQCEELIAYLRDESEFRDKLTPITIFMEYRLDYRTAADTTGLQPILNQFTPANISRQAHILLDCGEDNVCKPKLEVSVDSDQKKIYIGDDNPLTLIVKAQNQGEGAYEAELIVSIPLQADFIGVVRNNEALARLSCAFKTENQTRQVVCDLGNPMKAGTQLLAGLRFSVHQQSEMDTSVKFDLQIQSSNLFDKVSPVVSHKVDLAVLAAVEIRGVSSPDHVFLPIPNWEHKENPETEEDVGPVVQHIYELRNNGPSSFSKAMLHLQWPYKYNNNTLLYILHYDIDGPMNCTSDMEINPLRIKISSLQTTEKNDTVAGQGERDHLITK
Chain of purified αvβ3 (P06756 891-1048 limits assumed): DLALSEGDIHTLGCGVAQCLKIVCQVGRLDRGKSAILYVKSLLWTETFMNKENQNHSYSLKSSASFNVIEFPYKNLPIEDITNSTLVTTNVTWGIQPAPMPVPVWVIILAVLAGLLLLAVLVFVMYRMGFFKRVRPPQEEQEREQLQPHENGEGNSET
Chain of purified αvβ3 (P05106 27-788): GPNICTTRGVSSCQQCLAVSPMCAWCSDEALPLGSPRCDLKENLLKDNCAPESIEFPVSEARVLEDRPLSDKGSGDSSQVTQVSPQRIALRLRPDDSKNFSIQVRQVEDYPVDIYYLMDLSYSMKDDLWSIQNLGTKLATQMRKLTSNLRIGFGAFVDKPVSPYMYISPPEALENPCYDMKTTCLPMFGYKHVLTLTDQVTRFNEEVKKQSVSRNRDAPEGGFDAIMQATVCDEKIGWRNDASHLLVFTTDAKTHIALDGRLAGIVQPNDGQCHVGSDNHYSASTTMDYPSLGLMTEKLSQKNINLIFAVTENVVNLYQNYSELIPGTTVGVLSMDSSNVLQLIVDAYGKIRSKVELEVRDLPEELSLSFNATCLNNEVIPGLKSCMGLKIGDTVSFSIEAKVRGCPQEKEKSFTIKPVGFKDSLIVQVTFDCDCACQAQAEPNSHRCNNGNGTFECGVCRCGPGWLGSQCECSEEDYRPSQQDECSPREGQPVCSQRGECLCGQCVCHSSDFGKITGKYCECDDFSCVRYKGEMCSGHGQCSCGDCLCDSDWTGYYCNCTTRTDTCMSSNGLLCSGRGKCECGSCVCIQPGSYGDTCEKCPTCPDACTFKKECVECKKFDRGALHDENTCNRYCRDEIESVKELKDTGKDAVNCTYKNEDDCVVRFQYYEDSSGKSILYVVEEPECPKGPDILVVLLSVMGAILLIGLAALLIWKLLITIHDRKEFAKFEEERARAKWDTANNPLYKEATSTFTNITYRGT

Broadly, the IC50 is the concentration at which inhibition is half-maximal. `O=C(O)Cc1cc(I)c(Oc2cc(I)c(O)c(I)c2)c(I)c1` [Tetrac, tetraiodothyroacetic acid]: the IC50 was 105.4 ± 0.86 nM.
